Experimental findings from US20230060425A1, “FUSED BICYCLIC HETEROCYCLE DERIVATIVES AS PESTICIDES” (Bayer Aktiengesellschaft, priority 2019, published 2023) are described below.

Type in all cases: in vivo
The test system of assay [1] is Aphis gossypii. Kind of assay: Aphis gossypii spray test (APHIGO S). Particulars: 144 h, 6 dat, read-out: % Efficacy. As for the experimental part: Aphis gossypii—Spray Test (APHIGO S)
(§1) Solvent: 14 parts by weight of dimethylformamide
(§2) Emulsifier: alkylaryl polyglycol ether
(§3) To produce a suitable active compound preparation, 1 part by weight of active compound is dissolved using the stated parts by weight of solvent and made up with water containing an emulsifier concentration of 1000 ppm until the desired concentration is attained. To produce further test concentrations, the formulation is diluted with emulsifier-containing water. If the addition of ammonium salts or/and penetrants is required, these are each added in a concentration of 1000 ppm to the formulation solution.
Cotton plants (Gossypium hirsutum) heavily infested by the cotton aphid (Aphis gossypii) are sprayed with an active compound formulation of the desired concentration.
After the desired time, the kill in % is determined. 100% means that all the aphids have been killed; 0% means that no aphids have been killed.

In assay [2] the test system is Heliothis armigera. The assay is described as follows: Heliothis armigera test (HELIAR S). Particulars: Helicoverpa armigera, 6 dai, read-out: % Efficacy. As for the experimental part:
Heliothis armigera Test (HELIAR S)
as §1
(§4) Emulsifier: 2 parts by weight of alkylaryl polyglycol ether
(§5) To produce a suitable active compound formulation, 1 part by weight of active compound is dissolved with the stated parts by weight of solvent and emulsifier and made up to the desired concentration with water. To produce further test concentrations, water is used for dilution. In the event that addition of ammonium salts or/and penetrants (rapeseed oil methyl ester) is required, these are each pipetted in at a concentration of 1000 ppm after the finished formulation solution has been diluted.
Cotton plants (Gossypium hirsutum) are sprayed with an active compound formulation of the desired concentration and, in each case after 12 and 19 days, populated with 5 caterpillars (L2) of the cotton bollworm (Heliothis armigera).
(§6) The kill is determined 6 days after the infection. 100% means that all the caterpillars have been killed and 0% means that none of the caterpillars have been killed.

Assay [3] deals with Spodoptera frugiperda. Kind of assay: Spodoptera frugiperda test on maize plants (SPODFR S). Particulars: 6 dai, read-out: % Efficacy. The method, then: Spodoptera frugiperda Test (SPODFR S)
as §1, §4, §5
Maize plants (Zea mays) are sprayed with an active compound formulation of the desired concentration and, in each case after 5, 12 and 19 days, populated with 5 caterpillars (L2) of the fall armyworm (Spodoptera frugiperda).
as §6

The subject of assay [4] is Myzus persicae. The assay is described as follows: Myzus persicae drench test (MYZUPE D). The conditions noted are these: soil, 240 h, 10 dat, read-out: % Efficacy. As for the experimental part: Myzus persicae—Drench Test (MYZUPE D)
Solvent: 7 parts by weight of dimethylformamide
Emulsifier: 2 part by weight of alkylaryl polyglycol ether
To produce a suitable active compound preparation, 1 part by weight of active compound is mixed with the specified amounts of solvent and emulsifier, and the concentrate is diluted with water to the desired concentration, it being necessary to include the volume of soil which is drenched in the calculation. It should be ensured that a concentration of 40 ppm of emulsifier in the soil is not exceeded. To produce further test concentrations, water is used for dilution.
Savoy cabbage (Brassica oleracea) in pots with soil and infested by all stages of the green peach aphid (Myzus persicae) is watered with an active compound preparation of the desired concentration.
After the desired period of time, the efficacy in % is determined. 100% means that all the aphids have been killed; 0% means that no aphids have been killed.

The test system of assay [5] is Phaedon cochleariae. The assay is described as follows: Phaedon cochleariae spray test. The conditions noted are these: foliar, 168 h, application rate 100 g/ha, Chinese cabbage leaf discs, after 7 days, read-out: efficacy. The gist of the method:
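Chinese cabbage leaf discs sprayed with compound formulated in acetone/DMF and emulsifier-containing water, then infested with mustard beetle larvae after drying. Efficacy read after 7 days as % larvae killed.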

For assay [6], the system named is Myzus persicae. Kind of assay: Myzus persicae oral test. Particulars: 120 h, application rate 4 ppm, after 5 days, read-out: efficacy. The gist of the method: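 Aphid feeding test: compound dissolved in acetone, diluted with water and mixed with IPL41 insect medium plus sugar, offered through parafilm to a mixed population of green peach aphids. Mortality scored after 5 days as % efficacy (100% = all aphids dead, 0% = none dead).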

In assay [7] the test system is Myzus persicae. The assay is described as follows: Myzus persicae spray test on bell pepper plants (MYZUPE S). Particulars: 144 h, 6 dat, read-out: % Efficacy. As for the experimental part:
Myzus persicae—Spray Test (MYZUPE S)
as §1, §2, §3
Bell pepper plants (Capsicum annuum) severely infested with the green peach aphid (Myzus persicae) are treated by spraying with the active compound formulation in the desired concentration.
After the desired time, the kill in % is determined. 100% means that all the animals have been killed; 0% means that no animals have been killed.

Assay [8] deals with Ctenocephalides felis. Kind of assay: Ctenocephalides felis in vitro contact test with adult cat fleas. Particulars: application rate 5 μg/cm^2 (=500 g/ha); after 48 h; fleas dead or moribund. The method, then:
Ctenocephalides felis—In Vitro Contact Tests with Adult Cat Fleas
For the coating of the test tubes, 9 mg of active compound are first dissolved in 1 ml of acetone p.a. and then diluted to the desired concentration with acetone p.a. 250 μl of the solution are distributed homogeneously on the inner walls and the base of a 25 ml glass tube by turning and rocking on an orbital shaker (rocking rotation at 30 rpm for 2 h). With 900 ppm of active compound solution and internal surface area 44.7 cm^2, given homogeneous distribution, an area-based dose of 5 μg/cm^2 is achieved.
After the solvent has evaporated off, the tubes are populated with 5-10 adult cat fleas (Ctenocephalides felis), sealed with a perforated plastic lid and incubated in a horizontal position at room temperature and ambient humidity. After 48 h, efficacy is determined. To this end, the tubes are stood upright and the fleas are knocked to the base of the tube. Fleas which remain motionless at the base or move in an uncoordinated manner are considered to be dead or moribund.
100% efficacy means that all the fleas were dead or moribund. 0% efficacy means that no fleas were harmed.

Like-named read-outs stand apart in the source and are kept apart here.

On to `CCS(=O)(=O)c1c(-c2nc3cc(C(F)(F)F)cnc3n2C)ncc2cc(Br)ccc12` [Example I-037, 7-Bromo-4-ethylsulfonyl-3-[3-methyl-6-(trifluoromethyl)imidazo[4,5-b]pyridin-2-yl]isoquinoline], for which the values for the Emax at 4 ppm in assay [1], in assay [4] and in assay [7] (4 ppm) were 65%, 90% and 100%, respectively. Moreover, the Emax at 0.16 ppm in assay [2] (288 h, infection 12 dat) came out at 80%; in assay [2] (456 h, infection 19 dat), 70%; in assay [3] (120 h, infection 5 dat) it was 70%; in assay [3] (288 h, infection 12 dat), 50%. Further, the Emax at 0.8 ppm in assay [3] (288 h, infection 12 dat) was found to be 100%; in assay [3] (456 h, infection 19 dat), 100%; in assay [7] (0.8 ppm), 100%. Further, the pest or weed control at 100 g/ha in assay [5] was found to be 100%. The pest or weed control at 4 ppm in assay [6] was determined as 100%. The efficacy in assay [8] amounted to 100%.
